From ChEMBL document CHEMBL4387765, “Rational design, molecular docking and synthesis of novel homopiperazine linked imidazo[1,2-a]pyrimidine derivatives as potent cytotoxic and antimicrobial agents” (Bioorg Med Chem Lett, 2019)
Values after ≈ are worked out from the molar mass of the structure shown.

Legend:
[1] = tested on: Escherichia coli; experiment: Antibacterial activity against Escherichia coli MTCC 443 after 24 hrs by serial dilution method; format: functional; conditions: MTCC 443, 24 h
[2] = tested on: Bacillus subtilis; experiment: Antibacterial activity against Bacillus subtilis MTCC 441 after 24 hrs by serial dilution method; format: functional; conditions: MTCC 441, 24 h
[3] = tested on: HeLa; experiment: Cytotoxicity against human HeLa cells assessed as reduction in cell growth measured after 48 hrs by sulforhodamine B assay; format: functional, cell-based
[4] = tested on: SK-OV-3; experiment: Cytotoxicity against human SKOV3 cells assessed as reduction in cell growth measured after 48 hrs by sulforhodamine B assay; format: functional, cell-based; conditions: SK-OV-3, 48 h
[5] = tested on: Pseudomonas sp.; experiment: Antibacterial activity against Pseudomonas sp. 2496 after 24 hrs by serial dilution method; format: functional; conditions: Pseudomonas sp., 2496, 24 h
[6] = tested on: Candida albicans; experiment: Antifungal activity against Candida albicans MTCC 227 after 72 hrs by serial dilution method; format: functional; conditions: MTCC 227, 72 h
[7] = tested on: DU-145; experiment: Cytotoxicity against human DU145 cells assessed as reduction in cell growth measured after 48 hrs by sulforhodamine B assay; format: functional, cell-based; conditions: DU-145, 48 h
[8] = tested on: Priestia megaterium; experiment: Antibacterial activity against Bacillus megaterium MTCC 428 after 24 hrs by serial dilution method; format: functional; conditions: MTCC 428, 24 h
[9] = tested on: A549; experiment: Cytotoxicity against human A549 cells assessed as reduction in cell growth measured after 48 hrs by sulforhodamine B assay; format: functional, cell-based; conditions: A549, 48 h
[10] = tested on: HeLa; experiment: Potency index, ratio of etoposide IC50 to test compound IC50 for human HeLa cells; format: functional
[11] = tested on: DU-145; experiment: Potency index, ratio of etoposide IC50 to test compound IC50 for human DU145 cells; format: functional

| SMILES | MIC [1] [µg/mL] | MIC [2] [µg/mL] | MIC [5] [µg/mL] | MIC [6] [µg/mL] | MIC [8] [µg/mL] | IC50 [3] [µM] | IC50 [4] [µM] | IC50 [7] [µM] | IC50 [9] [µM] | Ratio IC50 [10] | Ratio IC50 [11] |
| --- | --- | --- | --- | --- | --- | --- | --- | --- | --- | --- | --- |
| COc1ccc(S(=O)(=O)N2CCCN(c3ccn4cc(-c5ccc(F)cc5)nc4n3)CC2)cc1 | > 100 | 12.8 (≈ 26.6 µM) | 88.2 (≈ 183 µM) | 9.4 (≈ 19.5 µM) | 14.6 (≈ 30.3 µM) | > 300 | > 300 | > 300 | 205 | – | – |
| COc1cc([C@@H]2c3cc4c(cc3[C@@H](O[C@@H]3O[C@@H]5CO[C@@H](C)O[C@H]5[C@H](O)[C@H]3O)[C@H]3COC(=O)[C@H]23)OCO4)cc(OC)c1O [ETOPOSIDE] | – | – | – | – | – | 7.43 | 2.39 | 9.8 | 10.4 | – | – |
| O=S(=O)(C1CC1)N1CCCN(c2ccn3cc(-c4ccc(F)cc4)nc3n2)CC1 | 34.6 (≈ 83.3 µM) | 48.4 (≈ 116 µM) | 28.2 (≈ 67.9 µM) | 14.6 (≈ 35.1 µM) | 64.6 (≈ 155 µM) | 33.5 | > 300 | 40.4 | > 300 | – | – |
| CC1(C)S[C@@H]2[C@H](NC(=O)[C@H](N)c3ccccc3)C(=O)N2[C@H]1C(=O)O [AMPICILLIN] | – | 22 (≈ 63 µM) | – | – | 22 (≈ 63 µM) | – | – | – | – | – | – |
| COc1cccc(S(=O)(=O)N2CCCN(c3ccn4cc(-c5ccc(F)cc5)nc4n3)CC2)c1 | 33.8 (≈ 70.2 µM) | 84.8 (≈ 176 µM) | 22.1 (≈ 45.9 µM) | > 100 | 84.4 (≈ 175 µM) | 6.54 | 229 | 6.24 | 4.14 | 1.13 | 1.57 |
| CS(=O)(=O)N1CCCN(c2ccn3cc(-c4ccc(F)cc4)nc3n2)CC1 | 18.4 (≈ 47.2 µM) | 28.7 (≈ 73.7 µM) | 34.6 (≈ 88.8 µM) | 38.7 (≈ 99.4 µM) | 26.4 (≈ 67.8 µM) | > 300 | > 300 | > 300 | 8.41 | – | – |

The next lines start with results.

| MIC [1] [µg/mL] | MIC [2] [µg/mL] | MIC [5] [µg/mL] | MIC [6] [µg/mL] | MIC [8] [µg/mL] | SMILES | IC50 [3] [µM] | IC50 [4] [µM] | IC50 [7] [µM] | IC50 [9] [µM] | Ratio IC50 [10] | Ratio IC50 [11] |
| --- | --- | --- | --- | --- | --- | --- | --- | --- | --- | --- | --- |
| 4.2 (≈ 8.23 µM) | 34.2 (≈ 67 µM) | 8.6 (≈ 16.8 µM) | 81.6 (≈ 160 µM) | 58.8 (≈ 115 µM) | Cc1ccc(S(=O)(=O)N2CCCN(c3ccn4cc(-c5ccc(F)cc5)nc4n3)CC2)cc1[N+](=O)[O-] | > 300 | > 300 | 16.9 | > 300 | – | – |
| 22.8 (≈ 52.6 µM) | 34.4 (≈ 79.4 µM) | 38.2 (≈ 88.1 µM) | 74.2 (≈ 171 µM) | 36.7 (≈ 84.7 µM) | O=C(c1ccc(F)cc1)N1CCCN(c2ccn3cc(-c4ccc(F)cc4)nc3n2)CC1 | 6.12 | 12.7 | > 300 | 194 | 1.31 | – |
| – | – | – | 8 (≈ 8.66 µM) | – | C[C@@H]1[C@H](O)[C@@H](C)/C=C/C=C/C=C/C=C/C=C/C=C/C=C/[C@H](O[C@@H]2O[C@H](C)[C@@H](O)[C@H](N)[C@@H]2O)C[C@@H]2O[C@](O)(C[C@@H](O)C[C@@H](O)[C@H](O)CC[C@@H](O)C[C@@H](O)CC(=O)O[C@H]1C)C[C@H](O)[C@H]2C(=O)O [AMPHOTERICIN B] | – | – | – | – | – | – |
| 4.6 (≈ 9.44 µM) | 8.8 (≈ 18.1 µM) | 5.2 (≈ 10.7 µM) | > 100 | 10.4 (≈ 21.3 µM) | O=S(=O)(c1ccc(F)cc1F)N1CCCN(c2ccn3cc(-c4ccc(F)cc4)nc3n2)CC1 | > 300 | 10 | > 300 | > 300 | – | – |
| 58.6 (≈ 123 µM) | 24.8 (≈ 52 µM) | 34.2 (≈ 71.8 µM) | 68.1 (≈ 143 µM) | 21.7 (≈ 45.5 µM) | N#Cc1ccc(S(=O)(=O)N2CCCN(c3ccn4cc(-c5ccc(F)cc5)nc4n3)CC2)cc1 | > 300 | 22.3 | > 300 | > 300 | – | – |
